From US5466689A, “Morpholine derivatives and their use” (Takeda Chemical Industries, Ltd., priority 1993, dated 1995)

How the values were obtained:
[1] = test system: Substance-P; assay: Action of Substance-P for inhibiting biting response by its administration at subarachnoid space; assay type: in vivo, Jcl:ICR mice; conditions: mice; dosage 10 μg/mouse; SP 10 ng/5 μl/mouse at subarachnoid space; bitings counted for one minute
Method: Action of Substance-P for inhibiting biting response by its administration at subarachnoid space
Five-week old male Jcl:ICR mice (10 animals per group) were employed. Dorsal cutaneous incisions were made under anesthesia at least one hour before the experiments. Substance-P (SP) was administered in an amount of 10 ng/5 μl/mouse at the subarachnoid space of the spinal cord. Then the test animals started to bite themselves at the abdomen alternately. The number of bitings was counted for one minute immediately after the SP administration. The values thus obtained were made indexes of pseudo pain reflexes caused by SP.
Test drugs were dissolved in a solution (Tween 80:ethanol:physiological saline=20:10:70) together with a given amount of SP. The solutions thus prepared were administered to test animals. In the case of oral administration, 5% suspension of gum arabica was employed, which was administered at 30 minutes before the SP administration.
The inhibition rate (%) of each sample was calculated by the following formula. Inhibition rate (%)=(number of counts in the control group-numberof counts in each sample)/(number of counts in the control group)×100.
And, 50% inhibition dose (ID50) was calculated from the primary linear regression line of dose-dependent curve.

[2] = acute toxicity (LD50), oral, rats; conditions: rat, in vivo, orally administered to rats
Text: Therefore, the compounds of this invention and their salts can be used for prophylaxis or therapy of diseases including pain due to bone diseases (arthritis, rheumatic fever, osteoporosis), pain induced by cancer or the like, lumbago, postoperative pain, neuralgia, pain induced by inflammatory diseases, pain caused by tooth extraction, tooth-ache and pain due to burn trauma, as well as neurosis (e.g. anxiety neurosis, depression, mental disorder), somnipathy or the like. Since the compounds of this invention act on a neurotransmitting system such as dopamine or norepinephrine, they can be used also as prophylactic and therapeutic drugs for circulatory diseases (e.g. hypertension).

[3] = test system: Writhing; assay: Acetic acid-writhing method; assay type: in vivo, Slc:ICR mice; conditions: mice, 0.6% acetic acid i.p. 30 min later, writhing during 20 minutes
Method: Acetic acid-writhing method
Male Slc:ICR mice of four-week old (10 animals per group) were employed. Test compounds were orally administered. Thirty minutes later, purified water containing 0.6% acetic acid was injected intraperitoneally (0.1 ml/10 g body weight). Writhing shown by the test animals during 20 minutes was observed on individual animals.
On each test animal, the inhibition rate against the average response times in the control group was calculated. The test compound was administered as a 5% suspension of gum arabica.

SMILES	Inhibition rate (%), antagonistic action to Substance-P (biting response) [1] [%]	LD50 [2] [mg/kg]	Inhibition rate (%), analgesic action (writhing) ([3]; 25 mg/kg,p.o.) [%]	Inhibition rate (%), analgesic action (writhing) ([3]; 12.5 mg/kg,p.o.) [%]
C=C[C@]12OCCN(CC)[C@@H]1Cc1c[nH]c3cccc2c13 (relative stereo) [Example 1, Trans-4,6,6a,8,9,10a-hexahydro-7-ethyl-10a-vinyl-7H-indolo[3,4-gh][1.4]benzoxazine]	80			
CCN1CCO[C@]2(C)c3c(OC)ccc4[nH]cc(c34)C[C@@H]12 (relative stereo) [Example 2, Trans-4,6,6a,8,9,10a-hexahydro-7-ethyl-1-methoxy-10a-methyl-7H-indole[3,4-gh][1.4]benzoxazine]	100	≥ 100	99	
CCN1CCO[C@]2(C)c3cccc4[nH]cc(c34)C[C@@H]12 (relative stereo) [Example 8, Trans-4,6,6a,8,9,10a-hexahydro-7-ethyl-10a-methyl-7H-indolo[3,4-gh][1,4]benzoxazine]	65			61
